Here are results for one compound from ChEMBL document CHEMBL1127067 (1993).

Holding throughout (type): functional
In experiment [1] the test system is Mus musculus. Kind of experiment: Antitumor activity against P388 leukemia in BDF1/CDF1 mice expressed as percentage increase in life span at optimum dose of 12.5 mg/kg.
Experiment [2] is filed under the species Mus musculus. Nature of the experiment: Number of survivors after treating 12 mice (infected with B16 melanoma) for 60 days.
For experiment [3], the species on record is Mus musculus. Kind of experiment: Number of survivors after treating 42 mice (infected with P388 leukemia) for 30 days.
Experiment [4] concerns Mus musculus. Kind of experiment: Antitumor activity against B-16 melanoma in BDF1 mice expressed as percentage increase in life span at optimum dose of 6 mg/kg. The note with it: B16.

`C(=N\NC1=NCCN1)/c1c2ccccc2c(/C=N/NC2=NCCN2)c2ccccc12` [BISANTRENE]: in experiment [1], the ILS at 12.5 mg/kg worked out at 137%. The Cures is 2 in experiment [2] and 17 in experiment [3]. The ILS at 6 mg/kg in experiment [4] is 122%.

By ILS is commonly meant how much longer treated animals lived than controls.
